For data set [1] the following is noted: man, cited from earlier work.
Data set [2] can be described thus: Log P measurement, octanol–water system. It counts as physicochemical. As to the method: There are only calculated log P values available for CBD, CBG, CBC and CBN (range 6.1–7.4). Therefore, log P was measured experimentally for all four cannabinoids during this study. The partition coefficient describes the distribution of a tested compound in a two-phase octanol–water system. It is defined as a ratio of concentrations of the un-ionized compound in octanol and water at equilibrium. Cannabinoids were weighed (2 mg) and dissolved in 2.5 mL of octanol, followed by the addition of 2.5 mL of deionized water. The mixture was shaken for 2 h and then allowed to separate for 24 h. Twenty μL of the aqueous (bottom) phase was transferred into an LC vial, diluted with 60 μL of an appropriate IS at a concentration of 30 ng/mL, and analyzed using the aforementioned UHPLC-MS/MS method. The experiment was repeated five times for each cannabinoid.
Due to the highly lipophilic character of cannabinoids, their concentration in the organic phase is several orders of magnitude higher than the concentration in the aqueous phase. As a result, the difference in the total amount of cannabinoids and the amount present in the organic phase is very small and falls within the experimental error of the analytical method. Therefore, log P values were calculated based on the measured cannabinoid concentration in the aqueous phase, while the concentration in the octanol phase was calculated from the initial amount of the cannabinoid used and its measured concentration in the aqueous phase. […] Due to the very low concentrations of CBD and CBC in the aqueous phase, which fell below the LOQ of both methods, we were unable to determine the log P for these two cannabinoids.

A short description of data set [3]: Lymphatic transport studies in anesthetized mesenteric lymph duct cannulated rats. The following applies: for FRL, relative bioavailability via lymph / bioavailability / Kp: intraduodenal, mean ± SD; for FRL, relative bioavailability via lymph: FRL=FAL/F; for bioavailability: F, total absolute bioavailability, sum of FAL and FAP; for Kp: Lymph/serum AUC ratio. How it is done:
Anesthetized mesenteric lymph duct cannulated rat model was used for the lymphatic transport measurement as previously described with slight modifications. Briefly, rats were left on normal diet and given 1 mL of olive oil 1 h prior to the surgery to visualize the mesenteric lymph (milky white color). They were anesthetized with intramuscular xylazine 5 mg/kg and ketamine 100 mg/kg after a rapid isoflurane induction. A transverse laparotomy was performed. […] The catheter was fixed in place with two to three drops of tissue adhesive (Histoacryl, B. Braun Surgical, S.A., Spain). A duodenal catheter was also placed (polyethylene, 0.97 mm O.D., 0.58 mm I.D.) via a small duodenotomy and fixed with tissue adhesive. The abdominal wall was sutured in two layers, with both catheters leaving the abdominal cavity through the right flank. At the end of the procedure, the right jugular vein was cannulated for blood sampling.
The rats were then placed on heated pads and covered with blankets to prevent heat loss. Cannabinoids in oil solution or nanoemulsion were then dosed slowly via duodenal catheter over 30 min. The administered dose was 10 mg of CBD and 15 mg of CBG, CBC and CBN (volume 1 mL). Whole lymph was collected in regularly changed Eppendorf tubes from the time the dosing started. When the dosing was finished, continuous hydration with normal saline at a rate of 3 mL/h intraduodenally followed using an infusion pump (Perfusor compactplus, B. Braun Melsungen AG, Germany). Anesthesia was maintained throughout the rest of the experiment and additional ketamine intramuscular boluses were given whenever necessary. Eppendorf tubes were changed hourly and systemic blood was drawn at the same time points. Blood samples were centrifuged (4500 rpm for 10 min) and serum was extracted. Lymph volume was measured gravimetrically and the samples were further processed without additional adjustment. All samples were stored in −80 °C until analysis. Laboratory was unaware of animal assignment to the particular experimental groups (laboratory blinding).
Serum and lymph concentrations in all studies were dose-normalized to 1 mg/kg prior to further calculations. AUC values were determined using linear trapezoidal rule. Exact actual sampling times were used for this purpose. Scheduled sampling times were used for mean concentration plotting in the graphs. PK-solver add-on for MS Excel was used for all basic pharmacokinetic calculations. GraphPad Prism version 10.2.2 (GraphPad Software, San Diego, CA, USA) was used for all statistical analyses and graph plotting. Unpaired Student’s t test was used to compare pharmacokinetic and lymphatic transport parameters between the experimental groups. Level of significance was set to p < 0.05.
Lymphatic transport parameters were defined and calculated as previously described. , Briefly, absolute bioavailability via lymph (FAL) was defined as percentage of administered drug dose absorbed into the lymph. It was determined directly from lymph volume and drug concentration in lymph duct cannulated rats. Absolute bioavailability via portal vein (FAP) was analogically defined as percentage of administered drug dose reaching the systemic circulation after direct absorption into blood. It was calculated using equation 1 FAP=AUCent/AUCiv where AUCent is the area under the dose-normalized blood concentration–time curve after enteral dosing in lymph duct cannulated (i.e., lymph deprived) rats and AUCiv is the respective parameter in a separate intravenously dosed group. Total absolute bioavailability (F) in lymph duct cannulated rats was calculated as a sum of FAL and FAP. In normal animals with no lymph duct cannulation, F was calculated using standard formula for oral bioavailability: 2 F=AUCpo/AUCiv Relative bioavailability via lymph (FRL) was defined as the percentage of systemically available drug that was absorbed via lymph. It was calculated using the equation 3 FRL=FAL/F

For data set [4] the following is noted: cited from earlier work; for absolute oral bioavailability: species not printed at place, ref reports published so far.
Details of data set [5]: method as in published earlier (Table 1 footnote a). The settings on record: nanoemulsion, IV, rats, 1 mg CBD, mean ± SD, ref published earlier (Table 1 footnote a), cited from earlier work.
For data set [6] the following is noted: dogs, oral; cited from earlier work.
[7] abbreviates: octanol–water, from measured aqueous phase concentration, lower bounds based on LOQ, n = 5, read-out: Log P.
Where [8] appears, read: nanoemulsion compared to oil solution, lymph duct-cannulated rats.
The mark [9] stands for this setting: nanoemulsion, lymph duct-cannulated rats.
The mark [10] stands for this setting: oil solution, lymph duct-cannulated rats.
[11] abbreviates: rat, in vivo, nanoemulsion, lymph duct-cannulated rats.
The mark [12] stands for this setting: rat, in vivo, oil solution, lymph duct-cannulated rats.

Data on 4 molecules can be found in publication PMC12326358, “Effect of Quantitative Structural Properties and Drug Formulation in Four Cannabinoids (Cannabidiol, Cannabigerol, Cannabichromene, and Cannabinol) on Their Lymphatic Transport after Enteral Administration in Rats” (Molecular Pharmaceutics, 2025).

“And” between values parts separate entries of the source, which are not always exact repeats. Identical values can stand only once. “Also recorded” adds a separate entry of the source. Like-named read-outs stand apart in the source and are kept apart here.

In general, Tmax refers to the time from dosing to the highest level. As usually defined, the bioavailability is dose-corrected exposure relative to a reference, in per cent. What is called Kp is the ratio of the level in a tissue or fluid to that in plasma or blood. One may read the AUC(0-inf) as the area under the concentration-time curve extrapolated to infinity. What is called Vss is the apparent volume that relates the amount in the body to the concentration in plasma or blood. As usually defined, the Cmax is the maximum level reached in the sampled fluid or tissue.

For the molecule `CCCCCc1cc(O)c2c(c1)OC(C)(CCC=C(C)C)C=C2` (centres unmarked) [CBC, cannabichromene], the Tmax in data set [1] (oral administration) is 2 to 4 h. In addition, the logP in data set [2] (setting [7]) was above 6.7. Moreover, in data set [3] (setting [8]), the “drop of relative bioavailability via lymph (FRL)” value is “did not reach statistical significance”, the “increase in absolute bioavailability via lymph (FAL)” value (“increase … (FAL)” for short) came out at 3 fold and the “increase in absolute bioavailability via portal vein (FAP)” value (“increase … (FAP)” below) is on record as 8 fold. Further, the “FRL, relative bioavailability via lymph” value in data set [3] (setting [9]) was 47% and 47 ± 14%. The “FRL, relative bioavailability via lymph” value in data set [3] (setting [10]) was determined as 63 ± 17%. In data set [3] (setting [11]), the bioavailability was 29 ± 7% and the Kp was determined as 530 ± 239. For the same molecule, in data set [3] (setting [12]), the bioavailability was found to be 6.6 ± 3.9% and the Kp is 1260 ± 676.
Take `CCCCCc1cc(O)c2c(c1)OC(C)(C)c1ccc(C)cc1-2` [CBN, cannabinol]: the logP in data set [2] (setting [7]) was determined as 6.2. Besides, in data set [3] (setting [8]), the “drop of relative bioavailability via lymph (FRL)” value is given as 48%, the “increase … (FAL)” value amounted to 3 fold and the “increase … (FAP)” value was 13 fold. Moreover, the “FRL, relative bioavailability via lymph” value in data set [3] (setting [9]) was 36% and 36 ± 20 %. In addition, the “FRL, relative bioavailability via lymph” value in data set [3] (setting [10]) turned out to be 69 ± 13%. Further, in data set [3] (setting [11]), the bioavailability was determined as 29 ± 10% and the Kp was 274 ± 231. In data set [3] (setting [12]), the bioavailability is 5.3 ± 2% and the Kp was 976 ± 519. Further, the Tmax in data set [4] (rats, oral administration) is 1.5 to 3 h.
Turning to `C=C(C)[C@@H]1CCC(C)=C[C@H]1c1c(O)cc(CCCCC)cc1O` [CBD, cannabidiol], the oral bioavailability in data set [1] (estimated) is below 10%; in data set [4] (rats, lipid-free formulation), 8.5% and 8%; in data set [4] (rats, long-chain triglycerides-based formulation), 22%. Also, the “bioavailability increase when taken with food” value in data set [1] (oral) is on record as “up to 4 fold”. For the same molecule, the logP in data set [2] (setting [7]) was above 6.3. Moreover, the AUC(0-inf) in data set [5] (dose-normalized to 1 mg/kg) was 623 ± 141 ng·h/mL. The T1/2 in data set [5] is 2.5 ± 0.5 h. Further, the Vss in data set [5] is reported as 2.9 ± 1.1 L/kg. Further, in data set [5] (serum, dose-normalized to 1 mg/kg), the Cmax is recorded as 845 ± 253 ng/mL. Besides, the “drop of relative bioavailability via lymph (FRL)” value in data set [3] (setting [8]) is 74%. The “increase … (FAL)” value in data set [3] (setting [8]) is reported as “did not increase; also recorded: no increase”. In data set [3] (setting [8]), the “increase … (FAP)” value was determined as 11 fold. Moreover, the “FRL, relative bioavailability via lymph” value was 13% and 13 ± 8 % in data set [3] (setting [9]); 50 ± 12% in data set [3] (setting [10]). Also, the values for the bioavailability in data set [3] (setting [11]) and in data set [3] (setting [12]) were 24 ± 9% and 4 ± 1.5%, respectively. The Kp in data set [3] (setting [11]) turned out to be 100 ± 60; in data set [3] (setting [12]) it was 699 ± 333. The values for the absolute oral bioavailability in data set [4] (sunflower oil-based microemulsion) and in data set [4] (sunflower oil) were 25% and 14%, respectively.
`CCCCCc1cc(O)c(C/C=C(\C)CCC=C(C)C)c(O)c1` [CBG, cannabigerol]: the logP in data set [2] was found to be 7.2. In addition, the “average Tmax” value in data set [6] is 0.75 h. Further, in data set [3] (rat, in vivo), the “drop of relative bioavailability via lymph (FRL)” value was determined as 75%, the “increase … (FAL)” value amounted to 8 fold and the “increase … (FAP)” value is given as 71 fold.
